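Briefly, cells in 96-well plates were exposed to five compound concentrations for 48 h, and endpoints were estimated by linear interpolation. GI50 = concentration required for 50% inhibition of growth. Definition used: TGI = concentration required for complete inhibition of growth.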
How the values were obtained:
Test in all cases: DTP human tumour cell line panel, 48 h
786-0 renal = test system: 786-0 renal
A498 renal = test system: A498 renal
A549 NSCLC = test system: A549 NSCLC
ACHN renal = test system: ACHN renal
BT-549 breast = test system: BT-549 breast
CAKI-1 renal = test system: CAKI-1 renal
CCRF-CEM leukemia = test system: CCRF-CEM leukemia
COLO 205 colon = test system: COLO 205 colon
DU-145 prostate = test system: DU-145 prostate
EKVX NSCLC = test system: EKVX NSCLC
HCC-2998 colon = test system: HCC-2998 colon
HCT-116 colon = test system: HCT-116 colon
HCT-15 colon = test system: HCT-15 colon
HL-60(TB) leukemia = test system: HL-60(TB) leukemia
HOP-62 NSCLC = test system: HOP-62 NSCLC
HOP-92 NSCLC = test system: HOP-92 NSCLC
HS 578T breast = test system: HS 578T breast
HT29 colon = test system: HT29 colon
IGROV1 ovarian = test system: IGROV1 ovarian
K-562 leukemia = test system: K-562 leukemia
KM12 colon = test system: KM12 colon
LOX IMVI melanoma = test system: LOX IMVI melanoma
M14 melanoma = test system: M14 melanoma
MALME-3M melanoma = test system: MALME-3M melanoma
MCF7 breast = test system: MCF7 breast
MDA-MB-231 breast = test system: MDA-MB-231 breast
MDA-MB-435 = test system: MDA-MB-435
MDA-MB-468 breast = test system: MDA-MB-468 breast
MOLT-4 leukemia = test system: MOLT-4 leukemia
NCI-H226 lung = test system: NCI-H226 lung
NCI-H23 lung = test system: NCI-H23 lung
NCI-H460 lung = test system: NCI-H460 lung
NCI-H522 lung = test system: NCI-H522 lung
NCI/ADR-RES ovarian = test system: NCI/ADR-RES ovarian
OVCAR-3 ovarian = test system: OVCAR-3 ovarian
OVCAR-4 ovarian = test system: OVCAR-4 ovarian
OVCAR-5 ovarian = test system: OVCAR-5 ovarian
OVCAR-8 ovarian = test system: OVCAR-8 ovarian
PC-3 prostate = test system: PC-3 prostate
RPMI-8226 leukemia = test system: RPMI-8226 leukemia
RXF 393 renal = test system: RXF 393 renal
SF-268 CNS = test system: SF-268 CNS
SF-295 CNS = test system: SF-295 CNS
SF-539 CNS = test system: SF-539 CNS
SK-MEL-2 melanoma = test system: SK-MEL-2 melanoma
SK-MEL-28 melanoma = test system: SK-MEL-28 melanoma
SK-MEL-5 melanoma = test system: SK-MEL-5 melanoma
SK-OV-3 ovarian = test system: SK-OV-3 ovarian
SN12C renal = test system: SN12C renal
SNB-19 CNS = test system: SNB-19 CNS
SNB-75 CNS = test system: SNB-75 CNS
SR leukemia = test system: SR leukemia
SW-620 colon = test system: SW-620 colon
T-47D breast = test system: T-47D breast
TK-10 renal = test system: TK-10 renal
U251 CNS = test system: U251 CNS
UACC-257 melanoma = test system: UACC-257 melanoma
UACC-62 melanoma = test system: UACC-62 melanoma
UO-31 renal = test system: UO-31 renal

Structure (SMILES): N#Cc1ccc(C(=O)CSc2nc3c(c(Nc4ccc(S(N)(=O)=O)cc4)n2)CCC3)cc1
- GI50 (786-0 renal): > 22.5 µM
- TGI (786-0 renal): > 22.5 µM
- GI50 (A498 renal): > 22.5 µM
- TGI (A498 renal): > 22.5 µM
- GI50 (A549 NSCLC): > 22.5 µM
- TGI (A549 NSCLC): > 22.5 µM
- GI50 (ACHN renal): > 22.5 µM
- TGI (ACHN renal): > 22.5 µM
- GI50 (BT-549 breast): > 22.5 µM
- TGI (BT-549 breast): > 22.5 µM
- GI50 (CAKI-1 renal): > 22.5 µM
- TGI (CAKI-1 renal): > 22.5 µM
- GI50 (CCRF-CEM leukemia): > 22.5 µM
- TGI (CCRF-CEM leukemia): > 22.5 µM
- GI50 (COLO 205 colon): > 22.5 µM
- TGI (COLO 205 colon): > 22.5 µM
- GI50 (DU-145 prostate): > 22.5 µM
- TGI (DU-145 prostate): > 22.5 µM
- GI50 (EKVX NSCLC): > 22.5 µM
- TGI (EKVX NSCLC): > 22.5 µM
- GI50 (HCC-2998 colon): > 22.5 µM
- TGI (HCC-2998 colon): > 22.5 µM
- GI50 (HCT-116 colon): > 22.5 µM
- TGI (HCT-116 colon): > 22.5 µM
- GI50 (HCT-15 colon): > 22.5 µM
- TGI (HCT-15 colon): > 22.5 µM
- GI50 (HL-60(TB) leukemia): > 22.5 µM
- TGI (HL-60(TB) leukemia): > 22.5 µM
- GI50 (HOP-62 NSCLC): > 22.5 µM
- TGI (HOP-62 NSCLC): > 22.5 µM
- GI50 (HOP-92 NSCLC): > 22.5 µM
- TGI (HOP-92 NSCLC): > 22.5 µM
- GI50 (HS 578T breast): > 22.5 µM
- TGI (HS 578T breast): > 22.5 µM
- GI50 (HT29 colon): > 22.5 µM
- TGI (HT29 colon): > 22.5 µM
- GI50 (IGROV1 ovarian): > 22.5 µM
- TGI (IGROV1 ovarian): > 22.5 µM
- GI50 (K-562 leukemia): > 22.5 µM
- TGI (K-562 leukemia): > 22.5 µM
- GI50 (KM12 colon): > 22.5 µM
- TGI (KM12 colon): > 22.5 µM
- GI50 (LOX IMVI melanoma): > 22.5 µM
- TGI (LOX IMVI melanoma): > 22.5 µM
- GI50 (M14 melanoma): > 22.5 µM
- TGI (M14 melanoma): > 22.5 µM
- GI50 (MALME-3M melanoma): > 22.5 µM
- TGI (MALME-3M melanoma): > 22.5 µM
- GI50 (MCF7 breast): > 22.5 µM
- TGI (MCF7 breast): > 22.5 µM
- GI50 (MDA-MB-231 breast): > 22.5 µM
- TGI (MDA-MB-231 breast): > 22.5 µM
- GI50 (MDA-MB-435): > 22.5 µM
- TGI (MDA-MB-435): > 22.5 µM
- GI50 (MDA-MB-468 breast): > 22.5 µM
- TGI (MDA-MB-468 breast): > 22.5 µM
- GI50 (MOLT-4 leukemia): > 22.5 µM
- TGI (MOLT-4 leukemia): > 22.5 µM
- GI50 (NCI-H226 lung): > 22.5 µM
- TGI (NCI-H226 lung): > 22.5 µM
- GI50 (NCI-H23 lung): > 22.5 µM
- TGI (NCI-H23 lung): > 22.5 µM
- GI50 (NCI-H460 lung): > 22.5 µM
- TGI (NCI-H460 lung): > 22.5 µM
- GI50 (NCI-H522 lung): > 22.5 µM
- TGI (NCI-H522 lung): > 22.5 µM
- GI50 (NCI/ADR-RES ovarian): > 22.5 µM
- TGI (NCI/ADR-RES ovarian): > 22.5 µM
- GI50 (OVCAR-3 ovarian): > 22.5 µM
- TGI (OVCAR-3 ovarian): > 22.5 µM
- GI50 (OVCAR-4 ovarian): > 22.5 µM
- TGI (OVCAR-4 ovarian): > 22.5 µM
- GI50 (OVCAR-5 ovarian): > 22.5 µM
- TGI (OVCAR-5 ovarian): > 22.5 µM
- GI50 (OVCAR-8 ovarian): > 22.5 µM
- TGI (OVCAR-8 ovarian): > 22.5 µM
- GI50 (PC-3 prostate): > 22.5 µM
- TGI (PC-3 prostate): > 22.5 µM
- GI50 (RPMI-8226 leukemia): > 22.5 µM
- TGI (RPMI-8226 leukemia): > 22.5 µM
- GI50 (RXF 393 renal): > 22.5 µM
- TGI (RXF 393 renal): > 22.5 µM
- GI50 (SF-268 CNS): > 22.5 µM
- TGI (SF-268 CNS): > 22.5 µM
- GI50 (SF-295 CNS): > 22.5 µM
- TGI (SF-295 CNS): > 22.5 µM
- GI50 (SF-539 CNS): > 22.5 µM
- TGI (SF-539 CNS): > 22.5 µM
- GI50 (SK-MEL-2 melanoma): > 22.5 µM
- TGI (SK-MEL-2 melanoma): > 22.5 µM
- GI50 (SK-MEL-28 melanoma): > 22.5 µM
- TGI (SK-MEL-28 melanoma): > 22.5 µM
- GI50 (SK-MEL-5 melanoma): > 22.5 µM
- TGI (SK-MEL-5 melanoma): > 22.5 µM
- GI50 (SK-OV-3 ovarian): > 22.5 µM
- TGI (SK-OV-3 ovarian): > 22.5 µM
- GI50 (SN12C renal): > 22.5 µM
- TGI (SN12C renal): > 22.5 µM
- GI50 (SNB-19 CNS): > 22.5 µM
- TGI (SNB-19 CNS): > 22.5 µM
- GI50 (SNB-75 CNS): > 22.5 µM
- TGI (SNB-75 CNS): > 22.5 µM
- GI50 (SR leukemia): > 22.5 µM
- TGI (SR leukemia): > 22.5 µM
- GI50 (SW-620 colon): > 22.5 µM
- TGI (SW-620 colon): > 22.5 µM
- GI50 (T-47D breast): > 22.5 µM
- TGI (T-47D breast): > 22.5 µM
- GI50 (TK-10 renal): > 22.5 µM
- TGI (TK-10 renal): > 22.5 µM
- GI50 (U251 CNS): > 22.5 µM
- TGI (U251 CNS): > 22.5 µM
- GI50 (UACC-257 melanoma): > 22.5 µM
- TGI (UACC-257 melanoma): > 22.5 µM
- GI50 (UACC-62 melanoma): > 22.5 µM
- TGI (UACC-62 melanoma): > 22.5 µM
- GI50 (UO-31 renal): > 22.5 µM
- TGI (UO-31 renal): > 22.5 µM

Source: PubChem BioAssay (NCI)
